Assay results published in patent US20230087118A1, “IMIDAZO[1,2-a][sequence] DERIVATIVES AND THEIR USE IN THE TREATMENT OF DISEASE” (priority 2019, published 2023).
Where a name gives a salt, the structure may show the parent alone. Read-outs that look alike come from different tables or passages of the source.

Molecular target: T1, IRAK4 (Homo sapiens, UniProt Q9NWZ3)
T1 sequence (Q9NWZ3 1-460): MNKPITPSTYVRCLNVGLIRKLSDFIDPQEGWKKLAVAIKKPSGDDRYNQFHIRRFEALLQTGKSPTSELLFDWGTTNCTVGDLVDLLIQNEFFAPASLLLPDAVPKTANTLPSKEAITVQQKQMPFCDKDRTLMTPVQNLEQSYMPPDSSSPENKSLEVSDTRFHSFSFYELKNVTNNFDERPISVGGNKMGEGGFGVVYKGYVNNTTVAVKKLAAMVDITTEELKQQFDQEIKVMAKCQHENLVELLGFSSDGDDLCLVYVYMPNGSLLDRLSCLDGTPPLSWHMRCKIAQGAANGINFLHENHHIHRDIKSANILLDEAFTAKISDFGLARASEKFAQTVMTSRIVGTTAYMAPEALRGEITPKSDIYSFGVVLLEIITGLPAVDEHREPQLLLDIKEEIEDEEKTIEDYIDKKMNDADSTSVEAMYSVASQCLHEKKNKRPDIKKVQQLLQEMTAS
Experiment: biochemical

[1] = IRAK4 Biochemical Assay (1 mM ATP, 2 h) IC50 (μM), 1 mM ATP, 2 h, 100 pM IRAK4

| SMILES | IC50 [µM] | IC50 [1] [µM] |
| --- | --- | --- |
| CCOc1nc(C(=O)Nc2cccc3c2CCC3)cn2cc(C3CCOCC3)nc12 [Example 211] | 0.0116 |  |
| CC(C)Oc1cc2nc(C34CCC(C)(C3)OC4)cn2cc1C(=O)Nc1cccc(C(F)(F)F)c1F (stereo not shown) [Example 502, N-(2-fluoro-3-(trifluoromethyl)phenyl)-7-isopropoxy-2-(1-methyl-2-oxabicyclo[2.2.1]heptan-4-yl)imidazo[1,2-a]pyridine-6-carboxamide] | 0.0004 |  |
| CC(C)Oc1cc2nc(C34COC(C)(C3)C4)c(F)n2cc1C(=O)Nc1cccn(C(F)F)c1=O [Example 326, N-(1-(difluoromethyl)-2-oxo-1,2-dihydropyridin-3-yl)-3-fluoro-7-isopropoxy-2-(1-methyl-2-oxabicyclo[2.1.1]hexan-4-yl)imidazo[1,2-a]pyridine-6-carboxamide] | 0.0019 |  |
| Cn1ccc(NC(=O)c2cn3cc(C45COC(C)(C4)C5)nc3cc2OC2CC(C(F)F)C2)n1 (stereo not shown) [Example 451, 7-(3-(Difluoromethyl)cyclobutoxy)-N-(1-methyl-1H-pyrazol-3-yl)-2-(1-methyl-2-oxabicyclo[2.1.1]hexan-4-yl)imidazo[1,2-a]pyridine-6-carboxamide] |  | 0.0065 |
| COCCn1ccc(NC(=O)c2cn3cc(C45COC(C)(C4)C5)nc3cc2OC(C)C)n1 [Example 314, 7-Isopropoxy-N-(1-(2-methoxyethyl)-1H-pyrazol-3-yl)-2-(1-methyl-2-oxabicyclo[2.1.1]hexan-4-yl)imidazo[1,2-a]pyridine-6-carboxamide] | 0.0258 |  |
| COc1cc2nc(C34CC(OC)(C3)C4)cn2cc1C(=O)Nc1ccccn1 [Example 2] |  | 0.0586 |
| Cc1cnc2c(NC(=O)c3cn4cc(C5CC5)nc4cc3OC(C)C)cnn2c1 [Example 280, 2-Cyclopropyl-7-isopropoxy-N-(6-methylpyrazolo[1,5-a]pyrimidin-3-yl)imidazo[1,2-a]pyridine-6-carboxamide trifluoroacetate] |  | 0.0019 |
| CC(C)Oc1cc2nc(C34CCC(C)(C3)OC4)cn2cc1C(=O)Nc1cnn2cccnc12 (stereo not shown) [Example 417, 7-Isopropoxy-2-(1-methyl-2-oxabicyclo[2.2.1]heptan-4-yl)-N-(pyrazolo[1,5-a]pyrimidin-3-yl)imidazo[1,2-a]pyridine-6-carboxamide] | 0.0002 |  |
| CC1(C)CC(Oc2cc3nc(C45COC(C)(C4)C5)cn3cc2C(=O)Nc2cccn(C(F)F)c2=O)CO1 (stereo not shown) [Example 447, N-(1-(difluoromethyl)-2-oxo-1,2-dihydropyridin-3-yl)-7-((5,5-dimethyltetrahydrofuran-3-yl)oxy)-2-(1-methyl-2-oxabicyclo[2.1.1]hexan-4-yl)imidazo[1,2-a]pyridine-6-carboxamide] |  | 0.0014 |
| COc1ncccc1NC(=O)c1cn2cc(C34COC(C)(C3)C4)nc2cc1OC(C)C [Example 216] | 0.0005 |  |
| COc1cc2nc(C3CCOCC3)cn2cc1C(=O)Nc1cccnc1OC(C)C [Example 200] | 0.0115 |  |
| CC1(COc2cc3nc(C45COC(C)(C4)C5)cn3cc2C(=O)Nc2cccn(C(F)F)c2=O)CCOC1 (stereo not shown) [Example 444, N-(1-(difluoromethyl)-2-oxo-1,2-dihydropyridin-3-yl)-2-(1-methyl-2-oxabicyclo[2.1.1]hexan-4-yl)-7-((3-methyltetrahydrofuran-3-yl)methoxy)imidazo[1,2-a]pyridine-6-carboxamide] |  | 0.0042 |
| CC(C)Oc1nc2nc(C34COC(C)(C3)C4)cn2cc1C(=O)Nc1cc(F)n(C)n1 [Example 360, N-(5-fluoro-1-methyl-1H-pyrazol-3-yl)-7-isopropoxy-2-(1-methyl-2-oxabicyclo[2.1.1]hexan-4-yl)imidazo[1,2-a]pyrimidine-6-carboxamide] | 0.0111 |  |
| CCOc1nc(C(=O)Nc2cccnc2OC)cn2cc(C3CCOCC3)nc12 [Example 209] | 0.0057 |  |
| CCOc1cc(C(=O)Nc2cccc(OC)n2)cn2cc(C3CCCOC3)nc12 (stereo not shown) [Example 53, 8-Ethoxy-N-(6-methoxypyridin-2-yl)-2-(tetrahydro-2H-pyran-3-yl)imidazo[1,2-a]pyridine-6-carboxamide] | 0.0352 |  |
| CC(C)Oc1nc2nc(C34COC(C)(C3)C4)cn2cc1C(=O)Nc1cccc(C2CCOC2)n1 (stereo not shown) [Example 359, 7-Isopropoxy-2-(1-methyl-2-oxabicyclo[2.1.1]hexan-4-yl)-N-(6-(tetrahydro-furan-3-yl)pyridin-2-yl)imidazo[1,2-a]pyrimidine-6-carboxamide trifluoroacetate] |  | 0.0009 |
| CC(C)Oc1cc2nc(C34CCC(C)(C3)OC4)cn2cc1C(=O)Nc1cccc(C(F)(F)F)c1 (stereo not shown) [Example 510, 7-Isopropoxy-2-(1-methyl-2-oxabicyclo[2.2.1]heptan-4-yl)-N-(3-(trifluoromethyl)phenyl)imidazo[1,2-a]pyridine-6-carboxamide] | 0.001 |  |
| COc1cccc(NC(=O)c2cn3cc(C45CC(C)(CO4)C5)nc3cc2OC)n1 [Example 26] |  | 0.124 |
| CC(C)Oc1cc2nc([C@]34CC[C@](C)(C3)OC4)cn2cc1C(=O)Nc1cc(F)n(C)n1 (single isomer, unassigned) [Example 602] | 0.0051 |  |

| SMILES | IC50 [µM] | IC50 [1] [µM] |
| --- | --- | --- |
| CC(C)Oc1c(C(=O)Nc2cccc(C(F)F)n2)cn2cc(C34COC(CF)(C3)C4)nc2c1F [Example 269, N-(6-(Difluoromethyl)pyridin-2-yl)-8-fluoro-2-(1-(fluoromethyl)-2-oxabicyclo[2.1.1]hexan-4-yl)-7-isopropoxyimidazo[1,2-a]pyridine-6-carboxamide] | 0.0012 |  |
| CCOc1nc2nc(C34CCC(C)(CC3)OC4)cn2cc1C(=O)Nc1ccn(C)n1 [Example 423, 7-Ethoxy-N-(1-methyl-1H-pyrazol-3-yl)-2-(1-methyl-2-oxabicyclo[2.2.2]octan-4-yl)imidazo[1,2-a]pyrimidine-6-carboxamide] | 0.0054 |  |
| O=C(Nc1cccc(C(F)F)n1)c1cc(Cl)c2nc(C3CCOCC3)cn2c1 [Example 214] | 0.0715 |  |
| CCOc1nc(C(=O)Nc2cc(F)cn(C)c2=O)cn2cc([C@@H]3CCCOC3)nc12 (single isomer, unassigned) [Example 596] | 0.0063 |  |
| CC(C)Oc1nc2nc(C34COC(C)(C3)C4)cn2cc1C(=O)Nc1ccn(C(F)F)n1 [Example 361, N-(1-(difluoromethyl)-1H-pyrazol-3-yl)-7-isopropoxy-2-(1-methyl-2-oxabicyclo[2.1.1]hexan-4-yl)imidazo[1,2-a]pyrimidine-6-carboxamide] | 0.0037 |  |
| COc1ncccc1NC(=O)c1cn2cc(C34COC(C)(C3)C4)nc2c(OC(C)C)n1 [Example 337, 8-Isopropoxy-N-(2-methoxypyridin-3-yl)-2-(1-methyl-2-oxabicyclo[2.1.1]hexan-4-yl)imidazo[1,2-a]pyrazine-6-carboxamide] | 0.0004 |  |
| CCOc1nc2nc(C34COC(C)(C3)C4)cn2cc1C(=O)Nc1cccnc1OC [Example 242] | 0.0013 |  |
| Cn1ccc(NC(=O)c2cn3cc([C@]45CC[C@](C)(C4)OC5)nc3nc2OC2CCCC2)n1 (single isomer, unassigned) [Example 636] | 0.0037 |  |
| C[C@]12CC[C@](c3cn4cc(C(=O)Nc5cccc(C(F)F)n5)nc(OC5CCC5)c4n3)(CO1)C2 (single isomer, unassigned) [Example 627] | 0.0004 |  |
| COc1cc2nc(C3CCOCC3)cn2cc1C(=O)Nc1ccc(C)n(C)c1=O [Example 182] | 0.559 |  |
| COc1ncccc1NC(=O)c1cn2cc(C34CCC(C)(C3)OC4)nc2nc1OC(C)C (stereo not shown) [Example 248] | 0.0002 |  |
| COCCCc1cn2cc(C(=O)Nc3cccc(C(F)F)n3)c(OC(C)C)cc2n1 [Example 102, N-(6-(difluoromethyl)pyridin-2-yl)-7-isopropoxy-2-(3-methoxypropyl)imidazo[1,2-a]pyridine-6-carboxamide] | 0.0004 |  |
| CC(C)Oc1cc2nc(C34COC(C)(C3)C4)cn2cc1C(=O)Nc1cccc(C2CC2)n1 [Example 296, N-(6-cyclopropylpyridin-2-yl)-7-isopropoxy-2-(1-methyl-2-oxabicyclo[2.1.1]hexan-4-yl)imidazo[1,2-a]pyridine-6-carboxamide trifluoroacetate] |  | 0.0011 |
| Cn1ccc(NC(=O)c2cn3cc(C45COC(C)(C4)C5)nc3nc2OC2CCCC2)n1 [Example 285, 7-(Cyclopentyloxy)-N-(1-methyl-1H-pyrazol-3-yl)-2-(1-methyl-2-oxabicyclo[2.1.1]hexan-4-yl)imidazo[1,2-a]pyrimidine-6-carboxamide] | 0.006 |  |
| COCc1cc2nc(C34COC(C)(C3)C4)cn2cc1C(=O)Nc1ccn(C)n1 [Example 286, 7-(Methoxymethyl)-N-(1-methyl-1H-pyrazol-3-yl)-2-(1-methyl-2-oxabicyclo[2.1.1]hexan-4-yl)imidazo[1,2-a]pyridine-6-carboxamide] | 5.98 |  |
| COc1ncccc1NC(=O)c1cn2cc(C34CCOC(C)(C3)C4)nc2c(OC)n1 [Example 235] | 0.0035 |  |
| CC(C)Oc1c(C(=O)Nc2cccc(C(F)F)n2)cn2cc(C3CCOCC3)nc2c1F [Example 303, N-(6-(difluoromethyl)pyridin-2-yl)-8-fluoro-7-isopropoxy-2-(tetrahydro-2H-pyran-4-yl)imidazo[1,2-a]pyridine-6-carboxamide] | 0.0014 |  |
| CC12CCC(c3cn4cc(C(=O)Nc5cccn6cnnc56)c(OC5CCC5)cc4n3)(CO1)C2 (stereo not shown) [Example 540, N-([1,2,4]triazolo[4,3-a]pyridin-8-yl)-7-cyclobutoxy-2-(1-methyl-2-oxabicyclo[2.2.1]heptan-4-yl)imidazo[1,2-a]pyridine-6-carboxamide] | 0.0008 |  |
